Target: T1, Recombinant human HDAC6 (Homo sapiens, UniProt Q9UBN7)
T1 construct: full-length, MW=180 kDa; GST tag (N); made in house; host or cells: Sf9 insect cells (baculovirus)
T1 sequence (Q9UBN7 1-1215): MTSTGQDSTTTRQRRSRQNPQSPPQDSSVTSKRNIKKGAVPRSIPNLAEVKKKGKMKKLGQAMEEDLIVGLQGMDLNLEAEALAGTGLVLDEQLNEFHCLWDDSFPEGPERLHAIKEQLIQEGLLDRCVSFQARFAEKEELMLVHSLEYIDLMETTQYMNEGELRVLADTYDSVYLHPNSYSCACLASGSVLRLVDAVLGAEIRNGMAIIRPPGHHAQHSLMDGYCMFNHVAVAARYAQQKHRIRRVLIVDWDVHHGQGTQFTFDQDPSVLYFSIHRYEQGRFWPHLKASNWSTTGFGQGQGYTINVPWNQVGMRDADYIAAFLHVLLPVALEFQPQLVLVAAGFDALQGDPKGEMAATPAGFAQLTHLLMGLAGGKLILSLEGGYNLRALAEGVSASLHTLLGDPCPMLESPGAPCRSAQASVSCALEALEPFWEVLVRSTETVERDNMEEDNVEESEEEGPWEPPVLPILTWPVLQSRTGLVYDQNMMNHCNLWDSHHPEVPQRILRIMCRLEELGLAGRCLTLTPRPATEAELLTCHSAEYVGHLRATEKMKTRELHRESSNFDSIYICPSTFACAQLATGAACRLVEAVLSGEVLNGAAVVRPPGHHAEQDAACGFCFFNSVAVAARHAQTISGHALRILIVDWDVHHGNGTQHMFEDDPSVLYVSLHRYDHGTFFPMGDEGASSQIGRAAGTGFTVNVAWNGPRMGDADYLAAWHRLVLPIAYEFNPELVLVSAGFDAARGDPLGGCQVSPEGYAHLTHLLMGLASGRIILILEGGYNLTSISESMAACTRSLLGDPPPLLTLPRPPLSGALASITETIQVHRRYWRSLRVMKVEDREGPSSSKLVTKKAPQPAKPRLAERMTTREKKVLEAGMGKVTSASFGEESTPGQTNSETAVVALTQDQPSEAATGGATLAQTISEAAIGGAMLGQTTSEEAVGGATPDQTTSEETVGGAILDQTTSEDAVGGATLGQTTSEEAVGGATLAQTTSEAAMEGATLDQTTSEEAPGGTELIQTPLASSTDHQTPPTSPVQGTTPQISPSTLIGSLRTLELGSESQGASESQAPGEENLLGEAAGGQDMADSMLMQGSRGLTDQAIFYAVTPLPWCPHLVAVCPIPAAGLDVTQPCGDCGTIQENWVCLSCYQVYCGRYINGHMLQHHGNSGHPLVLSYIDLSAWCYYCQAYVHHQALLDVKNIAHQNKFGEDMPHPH
Assay: Biochemical HDAC enzymatic assay, HDAC6
Conditions: incubation time 10 min
Experimental: Incubation time for HDAC1/2 is 120 min, and 10 min for other HDACs.
Recombinant human HDAC6 (GenBank Accession No. BC069243), full-length, MW=180 kDa, was expressed by baculovirus in Sf9 insect cells using an N-terminal GST tag.
(§1) • I. Compound handling: Testing compounds were dissolved in 100% DMSO to a specific concentration. The serial dilution was conducted by epMotion 5070 in DMSO. • II. HDAC reaction buffer: 50 mM Tris-HCl, pH8.0, 137 mM NaCl, 2.7 mM KCl, and 1 mM MgCl2, Added fresh: 1 mg/ml BSA, 1% DMSO. • III. Substrate: Fluorogenic HDAC General Substrate for HDAC1, 2, 3, 6, 10, 11 ans Sirt1, 2 and 3: Arg-His-Lys-Lys(Ac); HDAC8 only substrate: Arg-His-Lys(Ac)-Lys(Ac); Class2A Substrate (HDAC4, 5, 7 and 9): Acetyl-Lys(trifluoroacetyl)-AMC; Sirt5 substrate: Ac-Lys(succinyl)-AMC. • IV. General Reaction Procedure: (Standard IC50 determination) • a. Delivered 2× enzyme in wells of reaction plate except No Enzyme (No En) control wells. Add buffer in No En wells. • b. Delivered compounds in 100% DMSO into the enzyme mixture by Acoustic technology (Echo550; nanoliter range). Spin down and pre-incubation. • c. Delivered 2× Substrate Mixture (Fluorogenic HDAC Substrate and co-factor (500 μM of Nicotinamide adenine dinucleotide (NAD^+) in all Sirt assay) in all reaction wells to initiate the reaction. Spin and shake. • d. Incubated for 1-2 hr. at 30° C. with seal. • e. Added Developer with Trichostatin A (or TMP269 or NAD^+) to stop the reaction and to generate fluorescent color. • f. Fluorescence was read (excitatory, 360; emission, 460) using the EnVision Multilabel Plate Reader (Perkin Elmer) • g. Endpoint reading was taken for analysis after the development reaches plateau. • V. Data Analysis: The percentages of enzyme activity (relative to DMSO controls) and IC50 values were calculated using the GraphPad Prism 4 program based on a sigmoidal dose-response equation.
The inhibitory activities of HDAC of compounds of the invention were determined using biochemical HDAC assays. Compounds were tested at the indicated doses in the biochemical assays of HDAC1, HDAC2, HDAC3, HDAC4, HDAC5, HDAC6, HDAC7, HDAC8, HDAC9, HDAC10, or HDAC11 enzyme. The curve fit and IC50 values were calculated using the GraphPad Prism 4 program based on a sigmoidal dose-response equation.
as §1, with “[…]” for “μM”, “equation. […]” for “equation.”

IC50 (Table 2) [nM]	IC50 (Table 1) [nM]	SMILES
29	–	O=C(NO)c1ccc(CN2C(=O)c3ccccc3C23OCCO3)cc1 [Compound Example 8, N-hydroxy-4-((3-oxospiro[isoindoline-1,2′-[1,3]dioxolan]-2-yl)methyl)benzamide]
4.5	–	O=C(NO)c1ccc(CN2C(=O)C3(CCOC3)c3ccccc32)cc1 (centres unmarked) [Compound Example 9]
205	–	O=C(NO)c1ccc(CN2C(=O)c3ccccc3C23CCNCC3)cc1 [Compound Example 10, N-hydroxy-4-((3-oxospiro[isoindoline-1,4′-piperidin]-2-yl)methyl)benzamide]
35	–	CN(C)C(=O)N1CCC2(CC1)c1ccccc1C(=O)N2Cc1ccc(C(=O)NO)cc1 [Compound Example 11, 2-(4-(hydroxycarbamoyl)benzyl)-N,N-dimethyl-3-oxospiro[isoindoline-1,4′-piperidine]-1′-carboxamide]
26	–	O=C(NO)c1ccc(CN2C(=O)c3ccccc3C23CCN(C2CC2)CC3)cc1 [Compound Example 12, 4-((1′-cyclopropyl-3-oxospiro[isoindoline-1,4′-piperidin]-2-yl)methyl)-N-hydroxybenzamide]
–	> 20000	Nc1ccc(-c2cccs2)cc1NC(=O)c1ccc(CN2C(=O)CCCC23CNC3)cc1 [Example 1, N-(2-amino-5-(thiophen-2-yl)phenyl)-4-((6-oxo-2,5-diazaspiro[3.5]nonan-5-yl)methyl)benzamide]
–	> 20000	Nc1ccc(-c2cccs2)cc1NC(=O)c1ccc(CN2C(=O)CCC23CCNCC3)cc1 [Example 2, N-(2-amino-5-(thiophen-2-yl)phenyl)-4-((2-oxo-1,8-diazaspiro[4.5]decan-1-yl)methyl)benzamide]
–	> 10000	Nc1cc(F)ccc1NC(=O)c1ccc(CN2C(=O)CCCC23CNC3)cc1 [Example 3, N-(2-amino-4-fluorophenyl)-4-((6-oxo-2,5-diazaspiro[3.5]nonan-5-yl)methyl)benzamide]
–	> 20000	CN1CCC2(CC1)CN(c1ccc(C(=O)Nc3cc(-c4cccs4)ccc3N)cn1)C(=O)O2 [Example 4, N-(2-amino-5-(thiophen-2-yl)phenyl)-6-(8-methyl-2-oxo-1-oxa-3,8-diazaspiro[4.5]decan-3-yl)nicotinamide]
–	> 20000	Nc1ccc(-c2ccc(F)cc2)cc1NC(=O)c1ccc(N2CC3(CCOCC3)OC2=O)nc1 [Example 5, N-(4-amino-4′-fluoro-[1,1′-biphenyl]-3-yl)-6-(2-oxo-1,8-dioxa-3-azaspiro[4.5]decan-3-yl)nicotinamide]
–	> 20000	Nc1ccc(-c2cccs2)cc1NC(=O)c1ccc(N2CC3(CCNCC3)CCC2=O)nc1 [Example 6, N-(2-amino-5-(thiophen-2-yl)phenyl)-6-(3-oxo-2,9-diazaspiro[5.5]undecan-2-yl)nicotinamide]

— patent US11155550B2, “Histone deacetylase inhibitors and methods of use thereof” (Reaction Biology Corp., priority 2018, dated 2021)
